Several values for one entry are separate records, joined by “and”; a condition that tells them apart may be missing. Equal values may be shown once.

Chain of Intestinal-type alkaline phosphatase (P19111 whole entry): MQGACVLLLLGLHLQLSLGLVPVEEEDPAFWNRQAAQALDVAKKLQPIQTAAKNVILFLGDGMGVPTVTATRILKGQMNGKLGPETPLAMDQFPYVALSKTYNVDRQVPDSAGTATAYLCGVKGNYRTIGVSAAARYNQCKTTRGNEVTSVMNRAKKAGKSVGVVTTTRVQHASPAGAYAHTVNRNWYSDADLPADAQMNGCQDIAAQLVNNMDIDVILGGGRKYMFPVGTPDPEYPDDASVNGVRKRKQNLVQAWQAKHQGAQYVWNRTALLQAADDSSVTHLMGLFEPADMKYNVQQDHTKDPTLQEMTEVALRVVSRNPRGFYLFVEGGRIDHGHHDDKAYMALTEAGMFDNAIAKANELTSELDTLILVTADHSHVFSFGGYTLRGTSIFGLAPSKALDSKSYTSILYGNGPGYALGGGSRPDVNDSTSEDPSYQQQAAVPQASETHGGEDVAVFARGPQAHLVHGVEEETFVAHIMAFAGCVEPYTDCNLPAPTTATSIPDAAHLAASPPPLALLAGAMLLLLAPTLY

For the first experiment, the target named is T1, Alkaline phosphatase, tissue-nonspecific isozyme (Bos taurus, UniProt P09487).
T1 sequence (P09487 whole entry): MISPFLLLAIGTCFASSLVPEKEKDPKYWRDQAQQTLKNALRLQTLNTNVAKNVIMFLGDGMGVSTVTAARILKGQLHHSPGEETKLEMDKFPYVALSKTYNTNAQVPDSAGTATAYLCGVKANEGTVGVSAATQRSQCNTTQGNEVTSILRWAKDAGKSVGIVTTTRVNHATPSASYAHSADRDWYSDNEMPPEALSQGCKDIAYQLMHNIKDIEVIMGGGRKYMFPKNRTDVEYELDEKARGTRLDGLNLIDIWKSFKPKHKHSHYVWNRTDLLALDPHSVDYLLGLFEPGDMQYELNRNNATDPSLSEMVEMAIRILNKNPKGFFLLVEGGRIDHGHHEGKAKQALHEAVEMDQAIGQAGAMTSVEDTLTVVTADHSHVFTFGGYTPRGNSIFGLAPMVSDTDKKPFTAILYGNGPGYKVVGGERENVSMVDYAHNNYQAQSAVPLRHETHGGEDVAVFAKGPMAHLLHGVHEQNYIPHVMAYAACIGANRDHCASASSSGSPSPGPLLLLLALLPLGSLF
The experiment is described as follows: Alkaline Phosphatase Inhibition Assay. Conditions: pH 9.8; 37 °C. As to the method:
(§1) Alkaline phosphatase (b-TNAP, c-IAP purchased from Calzyme Laboratories, Inc. USA) inhibition assay of different cyclic sulfonamides was performed using a chemiluminescent substrate i.e. CDP-Star® (disodium 2-chloro-5-(4-methoxyspiro[1,2-dioxetane-3,2'-(5-chlorotricyclo[3.3.1.13.7]decan])-4-yl]-1-phenyl phosphate). With a slight modification in reported spectrophotometric procedure, an optimized conditions of the bioassay were developed [Hessle et al., Proc. Natl. Acad. Sci., 99:9445-9449]. Buffer solution for this bioassay was composed of 8 M DEA (pH 9.8) that contain 2.5 mM MgCl2 and 0.05 mM ZnCl2. First of all, the compounds were tested at the final concentration of 200 μM(with final DMSO 1% (v/v)). In bioassay procedure, the total volume (50 μL solution) contained 10 μL of tested compound, followed by the addition of 20 μL of TNAP (1:800 times diluted (0.8 unit/mL) enzyme in assay buffer) or 20 μL of IAP (1:800 times diluted (1 unit/mL) enzyme in assay buffer). The mixture was allowed to incubate for 3-5 min at 37 °C and luminescence was measured using microplate reader (BioTek FLx800, Instruments,Inc. USA). The reaction was initiated by the addition of 20 μL of CDP-star® (final concentration of 110 μM) and the assay mixture was incubated again at 37 °C. The change in the luminescence was measured after for 15 min of incubation. The activity of each compound was compared with total activity control (without any inhibitor). Levamisole (2 mM per well) and L-phenylalanine (4 mM per well) were used as a standard inhibitors for tissuenonspecific alkaline phosphatase (TNAP) and calf intestinal alkaline phosphatase (IAP), respectively.
`CN(C)c1ccc2c3c(cccc13)S(=O)(=O)NC2c1ccc([N+](=O)[O-])cc1` (stereo unspecified) [6-(Dimethylamino)-3-(4'-nitrophenyl)-2,3-dihydronaphtho[1,8-de][1,2]thiazine 1,1-dioxide (7h)] came in with an IC50 of 0.11 µM. Consider `CN(C)c1ccc2c3c(cccc13)S(=O)(=O)NC2c1ccccc1` (stereo unspecified) [6-(Dimethylamino)-3-phenyl-2,3-dihydronaphtho[1,8-de][1,2]thiazine 1,1-dioxide (7a)], for which half-maximal inhibition (IC50) required 0.19 µM. For `COc1ccccc1C1NS(=O)(=O)c2cccc3c(N(C)C)ccc1c23` (stereo unspecified) [6-(Dimethylamino)-3-(2'-methoxyphenyl)-2,3-dihydronaphtho[1,8-de][1,2]thiazine 1,1-dioxide (7i)], the IC50 worked out at 0.31 µM.

On to `Cc1ccc(C2NS(=O)(=O)c3cccc4c(N(C)C)ccc2c34)cc1` (stereo unspecified) [6-(Dimethylamino)-3-(4'-methylphenyl)-2,3-dihydronaphtho[1,8-de][1,2]thiazine 1,1-dioxide (7c)], for which the IC50 was 0.46 µM. The same measure, in the same setting: the same measure for `CN(C)c1ccc2c3c(cccc13)S(=O)(=O)NC2c1ccc(Cl)cc1` (stereo unspecified) [6-(Dimethylamino)-3-(4'-dichlorophenyl)-2,3-dihydronaphtho[1,8-de][1,2]thiazine 1,1-dioxide (7b)]: 0.42 µM. With `COc1ccc(C2NS(=O)(=O)c3cccc4c(N(C)C)ccc2c34)c(OC)c1OC` (stereo unspecified) [6-(Dimethylamino)-3-(2',3',4'-trimethoxyphenyl)-2,3-dihydronaphtho[1,8-de][1,2]thiazine 1,1-dioxide (7n)], the IC50 is 1.19 µM and 0.51 µM. `CSc1ccc(C2NS(=O)(=O)c3cccc4c(N(C)C)ccc2c34)cc1` (stereo unspecified) [6-(Dimethylamino)-3-(4'-thiomethylphenyl)-2,3-dihydronaphtho[1,8-de][1,2]thiazine 1,1-dioxide (7e)] showed an IC50 of 6.63 µM. Regarding `CN(C)c1ccc2c3c(cccc13)S(=O)(=O)NC2c1cc(Cl)cc(Cl)c1O` (stereo unspecified) [6-(Dimethylamino)-3-(3',5'-dichloro-2-hydroxyphenyl)-2,3-dihydronaphtho[1,8-de][1,2]thiazine 1,1-dioxide (7g)], inhibition was half-maximal at 0.27 µM (IC50). This IC50 is about 25-fold lower than that of the compound before. Same read-out and setting: the same measure for `CN(C)c1ccc2c3c(cccc13)S(=O)(=O)NC2c1cccc([N+](=O)[O-])c1` (stereo unspecified) [6-(Dimethylamino)-3-(3'-nitrophenyl)-2,3-dihydronaphtho[1,8-de][1,2]thiazine 1,1-dioxide (7f)]: 1.45 µM. Same read-out and setting: the same measure for `COc1cc(Br)c(C2NS(=O)(=O)c3cccc4c(N(C)C)ccc2c34)cc1O` (stereo unspecified) [6-(Dimethylamino)-3-(5'-bromo-2'-hydroxy-3'-methoxyphenyl)-2,3-dihydronaphtho[1,8-de][1,2]thiazine 1,1-dioxide (7m)]: 0.44 µM and 0.68 µM.

As for `N[C@@H](Cc1ccccc1)C(=O)O` [L-[2,3,4,5,6-3H]phenylalanine], the IC50 was 80.2 µM. In other words, the double-digit micromolar range. Still for that read-out and setting: the same measure for `CN(C)c1ccc2c3c(cccc13)S(=O)(=O)NC2c1ccc(O)cc1` (stereo unspecified) [6-(Dimethylamino)-3-(4'-hydroxyphenyl)-2,3-dihydronaphtho[1,8-de][1,2]thiazine 1,1-dioxide (7d)]: 0.5 µM; for `COc1ccc(C2NS(=O)(=O)c3cccc4c(N(C)C)ccc2c34)cc1O` (stereo unspecified) [6-(Dimethylamino)-3-(3'-hydroxy-4'-methoxyphenyl)-2,3-dihydronaphtho[1,8-de][1,2]thiazine 1,1-dioxide (7k)]: 0.27 µM and 1.69 µM. Same read-out and setting: the same measure for `COc1cc(C2NS(=O)(=O)c3cccc4c(N(C)C)ccc2c34)ccc1O` (stereo unspecified) [6-(Dimethylamino)-3-(4'-hydroxy-3'-methoxyphenyl)-2,3-dihydronaphtho[1,8-de][1,2]thiazine 1,1-dioxide (7j)]: 0.2 µM.

Another experiment addresses Intestinal-type alkaline phosphatase (Bos taurus, UniProt P19111). Description: Alkaline Phosphatase Inhibition Assay. Conditions: pH 9.8; 37 °C. How it is done:
as §1
Turning to `CN(C)c1ccc2c3c(cccc13)S(=O)(=O)NC2c1ccccc1` (stereo unspecified) [6-(Dimethylamino)-3-phenyl-2,3-dihydronaphtho[1,8-de][1,2]thiazine 1,1-dioxide (7a)], the IC50 was 1.12 µM. This counts as single-digit micromolar. Still for that read-out and setting: the same measure for `CN(C)c1ccc2c3c(cccc13)S(=O)(=O)NC2c1cc(Cl)cc(Cl)c1O` (stereo unspecified) [6-(Dimethylamino)-3-(3',5'-dichloro-2-hydroxyphenyl)-2,3-dihydronaphtho[1,8-de][1,2]thiazine 1,1-dioxide (7g)]: 0.38 µM.

The values above are taken from BindingDB's records for doi:10.1016/j.bioorg.2017.01.008 (University of Karachi, 2017).
